{"source": "patent US20200071667A1", "about": "“COMPOSITION COMPRISING GLYCYRRHIZIN FOR INDUCING DIFFERENTIATION INTO MYELOID-DERIVED SUPPRESSOR CELL FROM MYELOID CELL” (Konkuk University Glocal Industry-Academic Collabo, priority 2018, published 2020)", "key": {"myeloid cells": {"tested_on": "myeloid cells", "test": "Differentiation of LPS-treated mouse myeloid cells treated with glycyrrhizin (in vitro), flow cytometric analysis", "assay_type": "cell-based, C57BL/6 mice", "details": "LPS 1 ng/ml, GR 100 μg/ml, incubation 3 days", "method": "To verify the in vivo experimental results of Example <2-1>, flow cytometric analysis was used to confirm whether differentiation into CD11b+Gr1 myeloid cells or MDSCs from myeloid cells was induced when myeloid cells of mice were treated with glycyrrhizin (GR).\nSpecifically, myeloid cells were obtained by washing the femoral region of each of 8-week-old male C57BL/6 male mice without specific pathogens with a Roswell Park Memorial Institute (RPMI) 1640 medium in a sterile state using a syringe with a 27-gauge needle. Red blood cells (RBCs) of the collected bone marrow were lysed with an erythrolysis solution, and then the remaining cells were treated with 10% fetal bovine serum, 40 ng/ml of IL-6, and 40 ng/ml of granulocyte-macrophage colony stimulating factor at 37° C. Thereafter, only 1 ng/ml of LPS was treated (LPS group) or 100 μg/ml of GR was additionally treated (LPS+GR group) after LPS treatment. The control was treated with 0.1 ml of PBS. After incubation for 3 days, the same flow cytometric analysis as in Example <2-1> was performed to measure the absolute number of myeloid cells of each group, and then all the obtained data was analyzed using FlowJo software (Tree Star Inc., Ashland, Oreg., USA) to determine the ratio of MDSCs to CD11b+Gr1 myeloid cells."}, "[1]": {"tested_on": "Toll-like receptor 4 (TLR4)", "test": "Immunohistochemical staining for TLR4 in heart or lung tissues", "assay_type": "in vivo, C57BL/6 mice", "details": "heart and lungs", "method": "Specifically, 0.1 ml of phosphate buffered saline (PBS; Gibco, Grand Island, N.Y., USA) was injected intraperitoneally (i.p.) into mice of the control, and 12 hours after the injection, 0.1 ml of PBS was intraperitoneally injected again into each mouse. 1 μg of LPS (Escherichia coli serotype 0111:B4, Sigma-Aldrich, St. Louis, Mo., USA) dissolved in 0.1 ml of PBS was injected intraperitoneally (i.p.) into mice of the LPS group to induce sepsis, and 12 hours after sepsis induction, 0.1 ml of PBS was intraperitoneally injected into each mouse. 1 μg of LPS and 100 mg/kg of ammonium glycyrrhizinate (GR; Abcam Inc., Cambridge, UK) dissolved in 0.1 ml of PBS were injected intraperitoneally (i.p.) into mice of the LPS+GR group, and 12 hours after the injection, 100 mg/kg of ammonium glycyrrhizinate dissolved in 0.1 ml of PBS was intraperitoneally injected into each mouse.\nIt was determined whether TLR4 expression levels were inhibited when mice with sepsis induced by LPS were treated with glycyrrhizin. The expression level of Toll-like receptor 4 (TLR4) was confirmed using immunohistochemistry and western blot analysis.\nSpecifically, for immunohistochemical staining for TLR4, the heart or lung tissues of mice of each experimental group of Example 1 were cut to 4 μm after deparaffinization treatment. […] TLR4 intensity was quantified using NIH Image J software."}, "IL-1β": {"tested_on": "IL-1β", "test": "ELISA of IL-1β in BALF and blood of mice with LPS-induced sepsis", "assay_type": "in vivo, C57BL/6 mice", "details": "12 hours after final injection", "method": "Specifically, 0.1 ml of phosphate buffered saline (PBS; Gibco, Grand Island, N.Y., USA) was injected intraperitoneally (i.p.) into mice of the control, and 12 hours after the injection, 0.1 ml of PBS was intraperitoneally injected again into each mouse. 1 μg of LPS (Escherichia coli serotype 0111:B4, Sigma-Aldrich, St. Louis, Mo., USA) dissolved in 0.1 ml of PBS was injected intraperitoneally (i.p.) into mice of the LPS group to induce sepsis, and 12 hours after sepsis induction, 0.1 ml of PBS was intraperitoneally injected into each mouse. […]\nSpecifically, for the analysis of bronchoalveolar lavage fluid and blood, 12 hours after the final injection into mice of each experimental group of Example 1, 1 μg/g of Zoletil®50 (a combined preparation of tiletamine and zolazepam, Virbac Laboratories, Carros, France) as an anesthetic and 0.1 U/g of heparin sodium (Green Cross Co., Yongin, Korea) were intraperitoneally injected into each mouse to minimize the effect of aches or pains on immunity. […] The levels of tumor necrosis factor (TNF)-α, IL-6, and IL-1β in BALF and blood were measured using a mouse enzyme-linked ELISA kit (R&D Systems Inc., Minneapolis, Minn., USA) according to the manufacturer's instructions. Samples collected from each group were analyzed in triplicate."}, "[2]": {"details": "parenthesised line under cell number"}}, "data": [{"substance": "lipopolysaccharide [LPS]", "values": [{"measurement": "CD11b + Gr1 myeloid cells (number of cells)", "setting": "myeloid cells", "value": "16,500 ± 400"}, {"measurement": "MDSCs (number of cells)", "setting": "myeloid cells", "value": "5,200 ± 300"}, {"measurement": "MDSCs/CD11b + Gr1 myeloid cells × 100 (%)", "setting": "myeloid cells", "value": "32.45 ± 2.69", "unit": "%"}, {"measurement": "Total cell count", "setting": "myeloid cells", "value": "47,300 ± 1,200"}, {"measurement": "CD11b + Gr1 myeloid cells (value in parentheses)", "setting": "myeloid cells; [2]", "value": "(34.61 ± 4.51)"}, {"measurement": "MDSCs (value in parentheses)", "setting": "myeloid cells; [2]", "value": "(11.23 ± 1.25)"}, {"measurement": "expression level of TLR4 by immunohistochemistry", "setting": "[1]", "value": "significantly higher in both the heart and the lungs compared to the control"}, {"measurement": "IL-1β", "setting": "IL-1β; BALF", "value": "164.82 ± 17.81", "unit": "pg/µL"}, {"measurement": "IL-1β", "setting": "IL-1β; Blood", "value": "126.28 ± 7.61", "unit": "pg/µL"}]}]}
